Experimental data: patent publication US11661431B2, “Thienopyrrole compounds” (Gilead Sciences, Inc., priority 2021, dated 2023)

Tests used:
TLR7 = TLR7 (Homo sapiens (Human), UniProt Q9NYK1); test: TLR7 human peripheral blood mononuclear cell (PBMC) cell-based assay (GS-986 as agonist; IL-6 and IFNα readout); conditions: human PBMCs, TLR7 agonist GS-986 at 400 nM, 6 hours, antagonist potency; read-out: TLR-7 EC50
Method: Human peripheral blood mononuclear cells (PBMCs) consist of lymphocytes, monocytes and dendritic cells that express TLR7, TLR8 and TLR9. These cells respond to TLR7, TLR8 and TLR9 ligand stimulation and produce cytokines and chemokines in vitro and in vivo. Human PBMCs are therefore suitable to be used in a cell-based assay to assess the in vitro potency of a TLR 7, 8, and/or 9 antagonist.
After counting, the cell density was adjusted to 2 million cells/ml and incubated for 1 hour at 37° C., 5% CO2 for recovery. Following the recovery, the cells were plated by adding 50 μl per well (100,000 cells) to 384-well cell culture plates (Greiner) containing 250 nl of test antagonists in 100% DMSO per well, in a 10 points dose response in quadruplicates. PBMCs were incubated in the presence of test antagonists for one hour at 37° C., 5% CO2 before being stimulated with a TLR7 or TLR9agonist. […] PBMCs were incubated in the presence of the test antagonist and the TLR7 (or TLR9) agonist for an additional 6 hours at 37° C., 5% CO2. At the end of the incubation, the cell culture plates were centrifuged at 500 g for 5 min, and the cell culture supernatant was collected. The level of cytokines (IL-6 and IFNα) in the supernatant was measured by electrochemiluminescence immunoassays (Mesoscale Discovery) following manufacturer's recommended protocols.

TLR8 = TLR8 (Homo sapiens (Human), UniProt Q9NR97); test: TLR8 human peripheral blood mononuclear cell (PBMC) cell-based assay (Compound A as agonist; TNFα and IL12p40 readout); conditions: human PBMCs, TLR8 agonist Compound A at 800 nM, 6 hours, antagonist potency; read-out: TLR-8 EC50
Method: After counting, the cell density was adjusted to 2 million cells/ml and incubated for 1 hour at 37° C., 5% CO2 for recovery. Following the recovery, the cells were plated by adding 50 μl per well (100,000 cells) to 384-well cell culture plates (Greiner) containing 250 nl of test antagonists in 100% DMSO per well, in a 10 points dose response in quadruplicates. PBMCs were incubated in the presence of antagonists for one hour at 37° C., 5% CO2 before being stimulated with TLR8 agonist. […] PBMCs were incubated in the presence of antagonist and the TLR8 agonist for an additional 6 hours at 37° C., 5% CO2. At the end of the incubation, the cell culture plates were centrifuged at 500 g for 5 min, and the cell culture supernatant was collected. The level of cytokines (TNFα and IL12p40) in the supernatant was measured by electrochemiluminescence immunoassays (Mesoscale Discovery) following manufacturer's recommended protocols.

Chain of TLR8 (Q9NR97 27-1041): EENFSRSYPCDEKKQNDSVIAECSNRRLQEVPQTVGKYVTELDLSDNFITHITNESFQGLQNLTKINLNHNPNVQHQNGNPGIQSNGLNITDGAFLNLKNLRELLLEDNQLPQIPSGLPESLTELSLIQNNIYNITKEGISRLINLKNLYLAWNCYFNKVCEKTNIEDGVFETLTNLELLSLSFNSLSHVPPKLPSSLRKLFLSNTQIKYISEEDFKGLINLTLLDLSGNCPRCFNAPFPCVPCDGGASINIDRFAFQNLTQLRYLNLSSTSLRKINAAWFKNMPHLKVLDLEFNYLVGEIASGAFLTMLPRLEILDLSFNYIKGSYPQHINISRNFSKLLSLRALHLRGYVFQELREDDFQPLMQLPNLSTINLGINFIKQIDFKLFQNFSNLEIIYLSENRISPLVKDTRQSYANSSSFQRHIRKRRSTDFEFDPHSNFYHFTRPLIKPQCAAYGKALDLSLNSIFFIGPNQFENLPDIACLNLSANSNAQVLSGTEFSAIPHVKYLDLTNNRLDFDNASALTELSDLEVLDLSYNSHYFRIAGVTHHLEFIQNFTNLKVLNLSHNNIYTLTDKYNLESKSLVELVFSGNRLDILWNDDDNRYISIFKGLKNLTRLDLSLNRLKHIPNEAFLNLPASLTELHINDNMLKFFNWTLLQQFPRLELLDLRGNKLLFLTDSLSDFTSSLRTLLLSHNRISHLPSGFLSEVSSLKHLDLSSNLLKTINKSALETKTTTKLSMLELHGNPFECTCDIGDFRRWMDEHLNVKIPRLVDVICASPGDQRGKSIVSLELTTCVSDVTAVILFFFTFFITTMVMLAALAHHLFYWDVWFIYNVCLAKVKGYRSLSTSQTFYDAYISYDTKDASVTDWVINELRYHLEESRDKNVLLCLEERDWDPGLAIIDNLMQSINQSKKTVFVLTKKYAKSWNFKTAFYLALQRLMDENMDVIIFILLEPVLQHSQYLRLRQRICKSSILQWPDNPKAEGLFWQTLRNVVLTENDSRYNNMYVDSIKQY
Chain of TLR7 (Q9NYK1 27-1049): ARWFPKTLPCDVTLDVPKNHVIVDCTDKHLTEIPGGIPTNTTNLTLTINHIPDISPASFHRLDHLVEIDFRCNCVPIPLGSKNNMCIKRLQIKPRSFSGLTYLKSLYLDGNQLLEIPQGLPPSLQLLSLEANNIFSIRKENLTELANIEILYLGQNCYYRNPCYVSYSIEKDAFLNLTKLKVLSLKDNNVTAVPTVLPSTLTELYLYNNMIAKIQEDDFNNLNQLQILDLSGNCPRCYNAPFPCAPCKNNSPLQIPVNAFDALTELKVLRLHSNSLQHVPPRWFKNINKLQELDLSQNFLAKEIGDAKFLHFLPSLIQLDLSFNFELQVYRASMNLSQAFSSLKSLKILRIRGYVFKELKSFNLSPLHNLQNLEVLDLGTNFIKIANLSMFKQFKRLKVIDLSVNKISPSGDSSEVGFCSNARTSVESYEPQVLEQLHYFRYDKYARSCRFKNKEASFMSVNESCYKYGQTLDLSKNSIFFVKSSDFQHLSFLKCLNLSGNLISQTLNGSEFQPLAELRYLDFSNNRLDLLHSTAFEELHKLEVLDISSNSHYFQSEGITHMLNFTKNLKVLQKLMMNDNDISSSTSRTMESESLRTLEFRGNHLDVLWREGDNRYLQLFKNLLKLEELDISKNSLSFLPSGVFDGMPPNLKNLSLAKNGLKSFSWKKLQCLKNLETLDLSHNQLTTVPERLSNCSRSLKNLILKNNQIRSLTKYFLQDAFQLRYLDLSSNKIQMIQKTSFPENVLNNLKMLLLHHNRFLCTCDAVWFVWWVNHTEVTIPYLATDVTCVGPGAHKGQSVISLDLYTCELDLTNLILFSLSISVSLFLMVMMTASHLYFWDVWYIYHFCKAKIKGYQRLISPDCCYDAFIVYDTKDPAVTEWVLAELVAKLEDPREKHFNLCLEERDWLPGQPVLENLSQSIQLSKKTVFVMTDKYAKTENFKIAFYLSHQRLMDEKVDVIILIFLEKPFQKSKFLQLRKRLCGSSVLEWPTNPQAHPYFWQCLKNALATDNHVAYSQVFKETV

Row | Compound | EC50 (TLR7) [nM] | EC50 (TLR8) [nM]
1 | Cc1c(C2C[C@H]3CNC[C@H]3C2)sc2[nH]c(-c3cc(C)c4ncnn4c3)c(C(C)C)c12 (single isomer, unassigned) [Example 69] | 0.05 | 4.2
2 | Cc1c(-c2[nH]c3sc(C4CC5(CCN(CC(N)=O)C5)C4)c(C)c3c2C(C)C)cn2ncnc2c1C (single isomer, unassigned) [Example 85, 2-(2-(5-(7,8-dimethyl-[1,2,4]triazolo[1,5-a]pyridin-6-yl)-4 isopropyl-3-methyl-6H-thieno[2,3-b]pyrrol-2-yl)-6-azaspiro[3.4]octan-6-yl)acetamide] | 0.35 | 0.39
3 | Cc1c(-c2[nH]c3sc(C4CC5(CCN(CC(N)=O)C5)C4)c(C)c3c2C(C)C)cn2ncnc2c1C (single isomer, unassigned) [Example 86, 2-(2-(5-(7,8-dimethyl-[1,2,4]triazolo[1,5-a]pyridin-6-yl)-4-isopropyl-3-methyl-6H-thieno[2,3-b]pyrrol-2-yl)-6-azaspiro[3.4]octan-6-yl)acetamide] | 2.43 | 0.98
4 | Cc1c(-c2[nH]c3sc(C4COC5(CCN(CC(N)=O)CC5)C4)c(C)c3c2C(C)C)cn2ncnc2c1C (single isomer, unassigned) [Example 87, 2-(3-(5-(7,8-dimethyl-[1,2,4]triazolo[1,5-a]pyridin-6-yl)-4-isopropyl-3-methyl-6H-thieno[2,3-b]pyrrol-2-yl)-1-oxa-8-azaspiro[4.5]decan-8-yl)acetamide] | 0.87 | 20.9
5 | Cc1c(-c2[nH]c3sc(C4COC5(CCN(CC(N)=O)CC5)C4)c(C)c3c2C(C)C)cn2ncnc2c1C (single isomer, unassigned) [Example 88, 2-(3-(5-(7,8-dimethyl-[1,2,4]triazolo[1,5-a]pyridin-6-yl)-4-isopropyl-3-methyl-6H-thieno[2,3-b]pyrrol-2-yl)-1-oxa-8-azaspiro[4.5]decan-8-yl)acetamide] | 1.44 | 23.8
6 | Cc1c(-c2[nH]c3sc(C4CC5(CNCCO5)C4)c(C)c3c2C(C)C)cn2ncnc2c1C (single isomer, unassigned) [Example 89, 2-(5-(7,8-dimethyl-[1,2,4]triazolo[1,5-a]pyridin-6-yl)-4-isopropyl-3-methyl-6H-thieno[2,3-b]pyrrol-2-yl)-5-oxa-8-azaspiro[3.5]nonane] | 0.2 | –
7 | Cc1c(-c2[nH]c3sc(C4CC5(CNCCO5)C4)c(C)c3c2C(C)C)cn2ncnc2c1C (single isomer, unassigned) [Example 90, 2-(5-(7,8-dimethyl-[1,2,4]triazolo[1,5-a]pyridin-6-yl)-4-isopropyl-3-methyl-6H-thieno[2,3-b]pyrrol-2-yl)-5-oxa-8-azaspiro[3.5]nonane] | 2.68 | 6.79
8 | Cc1c(-c2[nH]c3sc([C@@H]4C[C@@H]5CC[C@H]4CN5CC(N)=O)c(C)c3c2C(C)C)cn2ncnc2c1C (single isomer, unassigned) [Example 95] | 0.7 | 4.45
9 | Cc1c(-c2[nH]c3sc([C@H]4C[C@@H]5CC[C@H]4CN5CC(N)=O)c(C)c3c2C(C)C)cn2ncnc2c1C (single isomer, unassigned) [Example 96] | 0.83 | 6.75
10 | Cc1c(-c2[nH]c3sc([C@@H]4C[C@@H]5C[C@H]4CN5C(C)C(N)=O)c(C)c3c2C(C)C)cn2ncnc2c1C (single isomer, unassigned) [Example 101] | 0.32 | 0.73
11 | Cc1c(-c2[nH]c3sc(C45CCN(CC(N)=O)CC4C5)c(C)c3c2C(C)C)cn2ncnc2c1C (single isomer, unassigned) [Example 102, 2-[6-[5-(7,8-dimethyl-[1,2,4]triazolo[1,5-a]pyridin-6-yl)-4-isopropyl-3-methyl-6H-thieno[2,3-b]pyrrol-2-yl]-3-azabicyclo[4.1.0]heptan-3-yl]acetamide] | 0.09 | 23.1
12 | Cc1c(-c2[nH]c3sc(C45CCN(CC(N)=O)CC4C5)c(C)c3c2C(C)C)cn2ncnc2c1C (single isomer, unassigned) [Example 103, 2-[6-[5-(7,8-dimethyl-[1,2,4]triazolo[1,5-a]pyridin-6-yl)-4-isopropyl-3-methyl-6H-thieno[2,3-b]pyrrol-2-yl]-3-azabicyclo[4.1.0]heptan-3-yl]acetamide] | 0.91 | 20.4
13 | Cc1c([C@H]2C[C@H]3CC[C@@H]2CN3CC(N)=O)sc2[nH]c(-c3cc(C)c4ncnn4c3)c(C(C)C)c12 (single isomer, unassigned) [Example 190] | 3.52 | 13.8
14 | Cc1c([C@@H]2C[C@H]3CC[C@@H]2CN3CC(N)=O)sc2[nH]c(-c3cc(C)c4ncnn4c3)c(C(C)C)c12 (single isomer, unassigned) [Example 191] | < 0.05 | 8.77
15 | Cc1c(-c2[nH]c3sc([C@H]4C[C@@H]5CC[C@H]4CN5CC(=O)N(C)C)c(C)c3c2C(C)C)cn2ncnc2c1C (single isomer, unassigned) [Example 212] | 0.45 | 6.78
16 | Cc1c(-c2[nH]c3sc([C@@H]4C[C@@H]5CC[C@H]4CN5CC(=O)N(C)C)c(C)c3c2C(C)C)cn2ncnc2c1C (single isomer, unassigned) [Example 213] | 4.05 | 3.64
17 | Cc1c(-c2[nH]c3sc([C@H]4C[C@@H]5CC[C@H]4CN5CCS(C)(=O)=O)c(C)c3c2C(C)C)cn2ncnc2c1C (single isomer, unassigned) [Example 214] | 4.47 | 3.4
18 | Cc1c(-c2[nH]c3sc([C@H]4C[C@@H]5CC[C@H]4CN5Cc4cn(C)nn4)c(C)c3c2C(C)C)cn2ncnc2c1C (single isomer, unassigned) [Example 215] | < 0.05 | 0.78
19 | Cc1c(-c2[nH]c3sc([C@@H]4C[C@@H]5CC[C@H]4CN5Cc4cn(C)nn4)c(C)c3c2C(C)C)cn2ncnc2c1C (single isomer, unassigned) [Example 216] | 2.74 | 5.26
20 | Cc1c(-c2[nH]c3sc([C@@H]4C[C@@H]5CC[C@H]4CN5CCS(C)(=O)=O)c(C)c3c2C(C)C)cn2ncnc2c1C (single isomer, unassigned) [Example 233] | 0.16 | 0.79
21 | Cc1c(-c2[nH]c3sc(C4CC(C(=O)N5CCNCC5)C4)c(C)c3c2C(C)C)cn2ncnc2c1C (single isomer, unassigned) [Example 238, (3-(5-(7,8-dimethyl-[1,2,4]triazolo[1,5-a]pyridin-6-yl)-4-isopropyl-3-methyl-6H-thieno[2,3-b]pyrrol-2-yl)cyclobutyl)(piperazin-1-yl)methanone] | 0.39 | 1.44
22 | Cc1c(-c2[nH]c3sc(C4CC(C(=O)N5CCNCC5)C4)c(C)c3c2C(C)C)cn2ncnc2c1C (single isomer, unassigned) [Example 239, (3-(5-(7,8-dimethyl-[1,2,4]triazolo[1,5-a]pyridin-6-yl)-4-isopropyl-3-methyl-6H-thieno[2,3-b]pyrrol-2-yl)cyclobutyl)(piperazin-1-yl)methanone] | < 0.05 | 1.5
23 | Cc1c(-c2[nH]c3sc(C4CC(c5nnc([C@H]6COCCN6)o5)C4)c(C)c3c2C(C)C)cn2ncnc2c1C (single isomer, unassigned) [Example 240] | 4.86 | 48.4
24 | Cc1c(-c2[nH]c3sc(C4CC(c5nnc([C@H]6COCCN6)o5)C4)c(C)c3c2C(C)C)cn2ncnc2c1C (single isomer, unassigned) [Example 241] | 3.51 | 30.7
25 | Cc1c(-c2[nH]c3sc([C@H]4C[C@H](c5nnc([C@@H]6COCCN6)o5)C4)c(C)c3c2C(C)C)cn2ncnc2c1C (single isomer, unassigned) [Example 242] | 2.9 | 37.3
26 | Cc1c(-c2[nH]c3sc([C@H]4C[C@@H](c5nnc([C@@H]6COCCN6)o5)C4)c(C)c3c2C(C)C)cn2ncnc2c1C (single isomer, unassigned) [Example 243] | 1.25 | 21.4
27 | Cc1c(-c2[nH]c3sc(C4CC(n5cc(C6COCCN6)nn5)C4)c(C)c3c2C(C)C)cn2ncnc2c1C (single isomer, unassigned) [Example 244, 3-(1-(3-(5-(7,8-dimethyl-[1,2,4]triazolo[1,5-a]pyridin-6-yl)-4-isopropyl-3-methyl-6H-thieno[2,3-b]pyrrol-2-yl)cyclobutyl)-1H-1,2,3-triazol-4-yl)morpholine] | 0.14 | 9.43
